# Measured values taken from paper PMC12406256, “Food Additives Inhibit Intestinal Drug Transporters but Have Limited Effect on In Vitro Drug Permeability” (Molecular Pharmaceutics, 2025).
# Columns and labels:
# MRP2 = molecular target: T1, MRP2 (Homo sapiens, UniProt Q92887); experiment: Vesicular transport assay, MRP2 (CDCF substrate); format: biochemical; conditions: food additive 50 μM; CDCF 5 μM; n = 1
# T1 construct: made in house; host or cells: Spodoptera frugiperda Sf9 cells, crude membrane vesicles
# T1 sequence (Q92887 whole entry): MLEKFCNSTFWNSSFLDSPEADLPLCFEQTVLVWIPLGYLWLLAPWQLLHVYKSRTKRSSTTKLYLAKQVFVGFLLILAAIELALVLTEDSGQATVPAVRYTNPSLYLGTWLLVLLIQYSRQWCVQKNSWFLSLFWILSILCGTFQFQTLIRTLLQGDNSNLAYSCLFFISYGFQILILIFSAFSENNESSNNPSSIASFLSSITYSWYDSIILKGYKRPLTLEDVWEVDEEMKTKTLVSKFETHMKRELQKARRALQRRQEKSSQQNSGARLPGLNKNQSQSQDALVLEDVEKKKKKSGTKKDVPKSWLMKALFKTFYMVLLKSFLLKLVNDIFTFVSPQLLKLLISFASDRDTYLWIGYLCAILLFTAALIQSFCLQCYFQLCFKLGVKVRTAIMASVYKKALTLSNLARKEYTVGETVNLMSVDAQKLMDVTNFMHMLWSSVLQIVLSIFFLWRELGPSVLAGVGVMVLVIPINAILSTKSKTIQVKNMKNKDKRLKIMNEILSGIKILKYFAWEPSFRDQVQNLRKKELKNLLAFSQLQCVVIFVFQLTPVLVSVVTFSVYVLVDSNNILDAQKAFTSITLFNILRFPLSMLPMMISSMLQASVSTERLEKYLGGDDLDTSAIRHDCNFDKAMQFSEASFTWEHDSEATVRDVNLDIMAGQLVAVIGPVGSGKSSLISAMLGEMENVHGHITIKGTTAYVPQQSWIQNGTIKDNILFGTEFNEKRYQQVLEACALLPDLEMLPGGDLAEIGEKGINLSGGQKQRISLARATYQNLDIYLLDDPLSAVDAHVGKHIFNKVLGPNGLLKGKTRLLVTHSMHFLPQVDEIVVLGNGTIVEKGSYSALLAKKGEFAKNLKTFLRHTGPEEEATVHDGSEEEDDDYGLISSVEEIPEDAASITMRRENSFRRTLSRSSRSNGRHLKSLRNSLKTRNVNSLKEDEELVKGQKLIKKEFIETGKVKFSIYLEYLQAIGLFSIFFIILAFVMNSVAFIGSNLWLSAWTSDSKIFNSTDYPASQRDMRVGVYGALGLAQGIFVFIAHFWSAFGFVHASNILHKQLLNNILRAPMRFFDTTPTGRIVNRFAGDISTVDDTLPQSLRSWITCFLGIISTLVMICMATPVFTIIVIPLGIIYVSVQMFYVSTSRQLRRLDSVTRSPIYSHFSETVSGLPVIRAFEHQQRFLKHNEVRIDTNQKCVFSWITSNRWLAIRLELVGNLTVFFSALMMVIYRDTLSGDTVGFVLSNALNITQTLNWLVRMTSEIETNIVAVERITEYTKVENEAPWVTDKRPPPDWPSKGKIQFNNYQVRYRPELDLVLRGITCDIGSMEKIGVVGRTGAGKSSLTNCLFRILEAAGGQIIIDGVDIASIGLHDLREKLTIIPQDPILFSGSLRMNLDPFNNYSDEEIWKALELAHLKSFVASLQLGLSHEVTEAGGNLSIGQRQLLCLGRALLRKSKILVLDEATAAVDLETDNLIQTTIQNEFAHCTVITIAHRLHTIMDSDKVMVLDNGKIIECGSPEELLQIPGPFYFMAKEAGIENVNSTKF
# OATP2B1 = molecular target: T2, OATP2B1 (Homo sapiens, UniProt O94956); experiment: HEK293 uptake assay, OATP2B1 (5-carboxyfluorescein substrate); format: cell-based
# T2 construct: expressed in transfected cells; host or cells: HEK293 cells (ATCC) transduced with recombinant OATP2B1 baculovirus
# T2 sequence (O94956 1-709): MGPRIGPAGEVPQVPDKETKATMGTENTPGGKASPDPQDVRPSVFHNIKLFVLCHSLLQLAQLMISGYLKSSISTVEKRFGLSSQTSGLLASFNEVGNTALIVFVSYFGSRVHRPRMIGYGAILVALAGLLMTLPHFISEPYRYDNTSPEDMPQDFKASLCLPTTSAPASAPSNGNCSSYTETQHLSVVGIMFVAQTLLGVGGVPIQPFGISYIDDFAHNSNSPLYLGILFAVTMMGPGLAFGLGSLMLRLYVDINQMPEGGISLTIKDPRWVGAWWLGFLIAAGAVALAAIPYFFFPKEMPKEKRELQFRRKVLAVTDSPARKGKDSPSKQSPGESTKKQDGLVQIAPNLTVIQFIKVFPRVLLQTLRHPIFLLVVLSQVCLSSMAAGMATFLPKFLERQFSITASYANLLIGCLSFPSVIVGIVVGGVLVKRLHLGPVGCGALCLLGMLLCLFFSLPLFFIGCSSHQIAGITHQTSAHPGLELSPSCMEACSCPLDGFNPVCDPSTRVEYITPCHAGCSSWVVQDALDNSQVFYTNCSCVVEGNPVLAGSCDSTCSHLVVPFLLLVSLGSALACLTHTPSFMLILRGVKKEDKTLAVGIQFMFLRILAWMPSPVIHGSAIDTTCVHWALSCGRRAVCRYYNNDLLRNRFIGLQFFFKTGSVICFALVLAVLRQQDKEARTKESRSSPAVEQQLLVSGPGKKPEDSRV
# Experimental: The inhibition of OATP2B1 was studied using a HEK293 cell-based uptake assay. HEK293 cells were cultured in DMEM supplemented with 10% FBS at 37 °C and 5% CO2 and seeded at 22,500 cells/well on 96-well plates coated with 0.1 mg/mL poly-D-lysine. After 24 h, the medium was replaced with a transduction mix (DMEM with 10% FBS, 5 mM sodium butyrate, and recombinant OATP2B1 or enhanced yellow fluorescent protein [eYFP, negative control] baculoviruses). The baculoviruses were produced as previously described. The uptake assay was performed after approximately 48 h. […] Test solutions also contained the substrate. Cells were washed with warm transport buffer and preincubated at 37 °C. Preincubation solutions were replaced with test solutions and incubated at 37 °C with shaking at 250 rpm. Transport was terminated by aspirating the test solution and washing the wells with an ice-cold transport buffer (150 μL) three times. Wells were left to dry, and cells were lysed with 0.1 M NaOH. […] Total protein concentration was measured from six random wells with a Pierce Coomassie (Bradford) Assay kit (Thermo Fisher Scientific) to ensure a similar protein concentration in the OATP2B1 and eYFP wells.
# P-gp [1] = molecular target: T3, P-gp (Homo sapiens, UniProt P08183); experiment: Vesicular transport assay, P-gp (N-methyl-quinidine substrate)
# T3 sequence (P08183 whole entry): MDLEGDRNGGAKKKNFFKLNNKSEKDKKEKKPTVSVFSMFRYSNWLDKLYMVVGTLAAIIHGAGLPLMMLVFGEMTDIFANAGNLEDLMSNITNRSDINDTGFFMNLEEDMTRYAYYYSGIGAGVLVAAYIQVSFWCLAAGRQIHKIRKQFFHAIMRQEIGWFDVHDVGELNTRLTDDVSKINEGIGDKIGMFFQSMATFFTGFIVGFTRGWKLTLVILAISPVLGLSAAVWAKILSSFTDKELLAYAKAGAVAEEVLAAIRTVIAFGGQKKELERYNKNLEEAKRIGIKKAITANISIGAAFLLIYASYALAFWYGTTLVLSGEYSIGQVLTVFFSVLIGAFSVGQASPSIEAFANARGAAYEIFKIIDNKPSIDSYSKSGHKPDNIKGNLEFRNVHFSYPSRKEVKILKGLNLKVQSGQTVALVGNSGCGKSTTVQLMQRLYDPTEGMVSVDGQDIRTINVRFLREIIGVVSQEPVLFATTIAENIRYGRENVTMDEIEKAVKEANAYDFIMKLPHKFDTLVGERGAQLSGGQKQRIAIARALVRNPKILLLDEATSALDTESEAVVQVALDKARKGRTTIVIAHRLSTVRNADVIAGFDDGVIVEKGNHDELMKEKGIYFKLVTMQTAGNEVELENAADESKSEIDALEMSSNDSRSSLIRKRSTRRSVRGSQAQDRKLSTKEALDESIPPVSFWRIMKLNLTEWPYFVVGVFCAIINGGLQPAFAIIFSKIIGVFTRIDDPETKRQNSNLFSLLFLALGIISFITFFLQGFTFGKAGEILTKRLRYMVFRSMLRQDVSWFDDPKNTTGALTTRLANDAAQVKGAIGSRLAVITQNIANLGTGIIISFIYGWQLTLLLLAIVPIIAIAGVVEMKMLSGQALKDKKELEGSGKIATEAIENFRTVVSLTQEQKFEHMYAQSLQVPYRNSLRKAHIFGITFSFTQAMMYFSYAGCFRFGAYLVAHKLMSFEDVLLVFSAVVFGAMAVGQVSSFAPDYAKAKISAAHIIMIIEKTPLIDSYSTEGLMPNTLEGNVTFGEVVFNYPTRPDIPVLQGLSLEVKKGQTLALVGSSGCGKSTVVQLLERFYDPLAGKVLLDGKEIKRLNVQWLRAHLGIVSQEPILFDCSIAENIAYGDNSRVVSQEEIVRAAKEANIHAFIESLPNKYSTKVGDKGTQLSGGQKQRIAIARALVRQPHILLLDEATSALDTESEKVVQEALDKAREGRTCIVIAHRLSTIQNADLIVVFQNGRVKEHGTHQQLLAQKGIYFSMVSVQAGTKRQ
# P-gp [2] = molecular target: T3, P-gp; design: made in house; host or cells: Spodoptera frugiperda Sf9 cells, crude membrane vesicles; conditions: Caco-2 cells; ref previous studies; cited from earlier work
compound,measurement,setting,value
CC1=C(/C=C/C(C)=C/C=C/C(C)=C/C=C/C=C(C)/C=C/C=C(C)/C=C/C2=C(C)CCCC2(C)C)C(C)(C)CCC1 [beta-carotene],inhibition of MRP2 substrate accumulation,MRP2,did not inhibit
same,IC50,"OATP2B1; 5-carboxyfluorescein 2 μM, HEK293 cells, pH 6, n = 3, read-out: IC50 (95% CI), OATP2B1",27.5 µM
same,inhibition at 50 μM,"OATP2B1; human, HEK293 cells transduced with recombinant OATP2B1 baculovirus, pH 6, probe 5-carboxyfluorescein 2 μM, food additive 50 μM, n = 1, read-out: inhibition of OATP2B1-mediated uptake",≥ 50%
same,IC50,P-gp [1],3.2 µM
same,inhibition at 50 μM,"P-gp [1]; Sf9-derived crude membrane vesicles expressing P-gp, pH 7, probe N-methyl-quinidine 2 μM",≥ 50%
same,P-gp inhibition in Caco-2 cells,P-gp [2],inhibitor of P-gp
